Reference: BindingDB's records for patent US20230339981 (Gilead Sciences, 2023)

Target: GTPase KRas [G12D] (Homo sapiens, UniProt P01116, G12D)
Assay: Biochemical Assay
Protocol: Compounds were tested for binding to GDP-loaded KRAS G12D in a 384-well assay format using a TR-FRET probe displacement assay in buffer consisting of 50 mM Hepes (pH 7.4), 150 mM NaCl, 5 mM MgCl2 and 0.005% Tween-20. […] Compounds were serially diluted (1:3) in DMSO. The LabCyte ECHO Acoustic dispenser system was used to pre-spot the assay plates (384-well Non-Binding Surface plates, Corning, Catalog #3824) with 50 nL of compound. The compounds were pre-incubated with 5 μL of 2× final enzyme concentration for 30 minutes before adding 5 μL of 2× final concentration of Eu-streptavidin and TR-FRET probe (10 μL final reaction volume). The plates were incubated at room temperature for 2 hours before measuring TR-FRET ratio on the Envision plate reader. IC50 values were defined as the compound concentration that causes a 50% decrease in TR-FRET ratio and were calculated using a sigmoidal dose-response model to generate curve fits.

Sequence of GTPase KRas [G12D] (P01116 whole entry G12D): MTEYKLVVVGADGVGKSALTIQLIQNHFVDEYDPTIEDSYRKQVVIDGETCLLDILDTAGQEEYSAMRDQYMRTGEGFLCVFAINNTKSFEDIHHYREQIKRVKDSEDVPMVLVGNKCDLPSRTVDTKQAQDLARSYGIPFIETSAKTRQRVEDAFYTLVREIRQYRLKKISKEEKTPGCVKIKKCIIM

Compound: C#Cc1c(F)ccc2cc(O)cc(-c3nc4c5c(nc(OC[Si](C)(C)CN6CCOCC6)nc5c3F)N3C[C@H]5CC[C@H](N5)[C@H]3CO4)c12 [US20230339981, Example 29]
- IC50: 560 nM

Compound: Fc1ccc2cccc(-c3nc4c5c(nc(OC[C@@]67CCCN6C[C@H](F)C7)nc5c3F)N3C[C@H]5CC[C@H](N5)[C@H]3CC4)c2c1OC(F)(F)F [US20230339981, Example 65]
- IC50: 89 nM

Compound: C#Cc1c(F)ccc2cc(O)cc(-c3nc4c5c(nc(OC[C@@]67CCCN6C[C@H](F)C7)nc5c3F)N3C[C@H]5CC[C@H](N5)[C@@H]3CC4)c12 [US20230339981, Example 133]
- IC50: 0.1 nM

Compound: C#Cc1c(F)ccc2cccc(-c3nc4c5c(nc(OC[C@@]67CCCN6C[C@@H](OC(F)(F)F)C7)nc5c3F)N3C[C@H]5CC[C@H](N5)[C@H]3CC4)c12 [US20230339981, Example 140]
- IC50: 3.7 nM

Compound: C#Cc1c(F)ccc2cc(O)cc(-c3nc4c5c(nc(OCC6(CN7CCC8(CC7)CC8)CC6)nc5c3F)N3C[C@H]5CC[C@H](N5)[C@H]3CC4)c12 [US20230339981, Example 177]
- IC50: 0.1 nM
